For 31 compounds, IC50 results are on record in US20120309750A1, “5-MEMBERED HETEROCYCLE DERIVATIVES AND MANUFACTURING PROCESS THEREOF” (ILDONG PHARM CO., LTD., priority 2010, published 2012).

Broadly, the IC50 is the concentration that inhibits the measured activity by half. A lower IC50 goes with greater potency in that assay.

Where only a bound is given, the exact number is not on record here.

One assay addresses yeast HSP90 (Saccharomyces cerevisiae, UniProt P02829). Description: Hsp90 ATPase assay (malachite green). The format is biochemical. The method, then: (§1) For present invention, the ATPase activity of yeast HSP90 was measured using malachite green assay. Formula I compounds for primary antitumoral activity were treated in human colorectal cancer cells (HCT116) showing increased expression levels of HSP90 client protein and cotoxicity IC50 values was measured as a result.

The test system of assay [1] is human colorectal cancer cells (HCT116). The experiment in a line: Growth inhibition assay (cytotoxicity) in HCT116. The assay is classed as cell-based. Conditions: HCT-116. The method, then:
as §1

yeast HSP90, sequence (P02829 whole entry): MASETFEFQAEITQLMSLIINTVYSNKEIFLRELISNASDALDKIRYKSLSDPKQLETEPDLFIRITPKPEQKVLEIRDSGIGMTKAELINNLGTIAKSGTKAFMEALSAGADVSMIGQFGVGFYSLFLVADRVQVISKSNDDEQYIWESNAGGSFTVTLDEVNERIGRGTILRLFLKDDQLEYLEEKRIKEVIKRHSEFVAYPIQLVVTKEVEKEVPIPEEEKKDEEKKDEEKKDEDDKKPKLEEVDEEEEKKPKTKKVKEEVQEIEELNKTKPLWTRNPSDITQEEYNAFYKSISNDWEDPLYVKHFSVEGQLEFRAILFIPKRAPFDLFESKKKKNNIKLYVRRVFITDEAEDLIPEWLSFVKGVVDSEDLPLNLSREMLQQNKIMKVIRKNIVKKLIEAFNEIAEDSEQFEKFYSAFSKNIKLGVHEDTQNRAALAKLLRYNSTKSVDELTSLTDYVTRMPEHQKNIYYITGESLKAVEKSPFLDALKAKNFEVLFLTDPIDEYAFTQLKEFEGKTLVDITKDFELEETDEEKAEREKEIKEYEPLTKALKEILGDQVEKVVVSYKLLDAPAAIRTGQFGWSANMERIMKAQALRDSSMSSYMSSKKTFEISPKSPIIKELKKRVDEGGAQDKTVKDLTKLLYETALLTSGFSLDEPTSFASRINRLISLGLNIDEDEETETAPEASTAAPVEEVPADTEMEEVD

As for `CCNC(=O)c1noc(-c2cc(C(C)C)c(O)cc2O)c1-c1ccc(CN2CCOCC2)s1` [Compound I-1, 5-(2,4-Dihydroxy-5-isopropylphenyl)-N-ethyl-4-(5-(morpholinomethyl)thiophen-2-yl)isoxazole-3-carboxamide], the IC50 (at yeast HSP90; in assay [1]) was less than 500 nM each time.

In the case of `CCNC(=O)c1noc(-c2cc(C(C)C)c(O)cc2O)c1-c1ccsc1CN1CCOCC1` [Compound I-2, 5-(2,4-Dihydroxy-5-isopropylphenyl)-N-ethyl-4-(2-(morpholinomethyl)thiophen-3-yl)isoxazole-3-carboxamide], the IC50 on yeast HSP90 is greater than 1000 nM; in assay [1], less than 500 nM.

On to `CC(C)c1cc(-c2onc(CO)c2-c2ccsc2)c(O)cc1O` [Compound I-3, 4-(3-(Hydroxymethyl)-4-(thiophen-3-yl)isoxazol-5-yl)-6-isopropylbenzene-1,3-diol], for which the IC50 (against yeast HSP90; in assay [1]) was greater than 1000 nM each time.

As for `CCC(=O)NCc1noc(-c2cc(C(C)C)c(O)cc2O)c1-c1ccsc1` [Compound I-4, N-((5-(2,4-Dihydroxy-5-isopropylphenyl)-4-(thiophen-3-yl)isoxazol-3-yl)methyl)propionamide], the IC50 (on yeast HSP90; in assay [1]) was greater than 1000 nM in each case.

For `CC(C)c1cc(-c2onc(Cn3ccnn3)c2-c2ccsc2)c(O)cc1O` [Compound I-5, 4-(3-((1H-1,2,3-Triazol-1-yl)methyl)-4-(thiophen-3-yl)isoxazol-5-yl)-6-isopro pylbenzene-1,3-diol], the IC50 is greater than 1000 nM on yeast HSP90 and less than 500 nM in assay [1].

`CC(=O)NCc1noc(-c2cc(C(C)C)c(O)cc2O)c1-c1ccsc1` [Compound I-6, N-((5-(2,4-Dihydroxy-5-isopropylphenyl)-4-(thiophen-3-yl)isoxazol-3-yl)methyl)acetamide]: the figures for the IC50 (against yeast HSP90; in assay [1]) were greater than 1000 nM and less than 500 nM, respectively.

Regarding `CCNC(=O)c1noc(-c2cc(C(C)C)c(O)cc2O)c1C1CC(C(=O)OCC)=NO1` (centres unmarked) [Compound I-7, Ethyl 5-(5-(2,4-dihydroxy-5-isopropylphenyl)-3-(ethylcarbamoyl)isoxazol-4-yl)-4,5-dihydroisoxazole-3-carboxylate], the IC50 (at yeast HSP90; in assay [1]) was 500 to 1000 nM each time.

As for `CCNC(=O)C1=NOC(c2c(C(=O)NCC)noc2-c2cc(C(C)C)c(O)cc2O)C1` (centres unmarked) [Compound I-8, 5-(2,4-Dihydroxy-5-isopropylphenyl)-N-ethyl-4-(3-(ethylcarbamoyl)-4,5-dihydroisoxazol-5-yl)isoxazole-3-carboxamide], the values for the IC50 (against yeast HSP90; in assay [1]) were 500 to 1000 nM and less than 500 nM, respectively.

Consider `CCNC(=O)c1noc(-c2cc(C(C)C)c(O)cc2O)c1C1CC(CO)=NO1` (centres unmarked) [Compound I-9, 5-(2,4-Dihydroxy-5-isopropylphenyl)-N-ethyl-4-(3-(hydroxymethyl)-4,5-dihydroisoxazol-5-yl)isoxazole-3-carboxamide], for which the IC50 against yeast HSP90 is 500 to 1000 nM; in assay [1], less than 500 nM.

For the compound `CCNC(=O)c1noc(-c2cc(C(C)C)c(O)cc2O)c1-c1nnn[nH]1` [Compound I-10, 5-(2,4-Dihydroxy-5-isopropylphenyl)-N-ethyl-4-(1H-tetrazol-5-yl)isoxazole-3-carboxamide], the values for the IC50 (against yeast HSP90; in assay [1]) were 500 to 1000 nM and greater than 1000 nM, respectively.

In the case of `CCNC(=O)c1noc(-c2cc(C(C)C)c(O)cc2O)c1-c1nnnn1C` [Compound I-11, 5-(2,4-Dihydroxy-5-isopropylphenyl)-N-ethyl-4-(1-methyl-1H-tetrazol-5-yl)isoxazole-3-carboxamide], the IC50 (against yeast HSP90; in assay [1]) was less than 500 nM each time.

Consider `CCNC(=O)c1noc(-c2cc(C(C)C)c(O)cc2O)c1-c1nnn(C)n1` [Compound I-12, 5-(2,4-Dihydroxy-5-isopropylphenyl)-N-ethyl-4-(2-methyl-2H-tetrazol-5-yl)isoxazole-3-carboxamide], for which the IC50 (at yeast HSP90; in assay [1]) was less than 500 nM throughout.

In the case of `CCNC(=O)c1noc(-c2cc(C(C)C)c(O)cc2O)c1-c1nnnn1CC` [Compound I-13, 5-(2,4-Dihydroxy-5-isopropylphenyl)-N-ethyl-4-(1-ethyl-1H-tetrazol-5-yl)isoxazole-3-carboxamide], the IC50 (at yeast HSP90; in assay [1]) was less than 500 nM each time.

With `CCNC(=O)c1noc(-c2cc(C(C)C)c(O)cc2O)c1-c1nnn(CC)n1` [Compound I-14, 5-(2,4-Dihydroxy-5-isopropylphenyl)-N-ethyl-4-(2-ethyl-2H-tetrazol-5-yl)isoxazole-3-carboxamide], the IC50 (on yeast HSP90; in assay [1]) was less than 500 nM each time.

As to `CCNC(=O)c1noc(-c2cc(C(C)C)c(O)cc2O)c1-c1cc(C(=O)OCC)no1` [Compound I-15, Ethyl 5-(2,4-dihydroxy-5-isopropylphenyl)-3-(ethylcarbamoyl)-4,5′-biisoxazole-3′-carboxylate], the IC50 was less than 500 nM against yeast HSP90 and greater than 1000 nM in assay [1].

For the compound `CCNC(=O)c1cc(-c2c(C(=O)NCC)noc2-c2cc(C(C)C)c(O)cc2O)on1` [Compound I-16, 5-(2,4-Dihydroxy-5-isopropylphenyl)-N^3,N^3′-diethyl-4,5′-biisoxazole-3,3′-dicarboxamide], the IC50 (at yeast HSP90; in assay [1]) was less than 500 nM throughout.

Regarding `CCNC(=O)c1noc(-c2cc(C(C)C)c(O)cc2O)c1-c1cc(CO)no1` [Compound I-17, 5-(2,4-Dihydroxy-5-isopropylphenyl)-N-ethyl-3′-(hydroxymethyl)-4,5′-biisoxazole-3-carboxamide], the IC50 (on yeast HSP90; in assay [1]) was less than 500 nM each time.

As to `CCNC(=O)c1noc(-c2cc(C(C)C)c(O)cc2O)c1-c1cc(CN2CCOCC2)no1` [Compound I-18, 5-(2,4-Dihydroxy-5-isopropylphenyl)-N-ethyl-3′-(morpholinomethyl)-4,5′-biisoxazole-3-carboxamide], the IC50 is 500 to 1000 nM against yeast HSP90 and less than 500 nM in assay [1].

For `CCNC(=O)c1noc(-c2cc(C(C)C)c(O)cc2O)c1-c1cc(COCC(=O)OC)no1` [Compound I-19, Methyl 2-((5-(2,4-dihydroxy-5-isopropylphenyl)-3-(ethylcarbamoyl)-4,5′-biisoxazol-3′-yl)methoxy)acetate], the IC50 (on yeast HSP90; in assay [1]) was less than 500 nM throughout.

On to `CCNC(=O)c1noc(-c2cc(C(C)C)c(O)cc2O)c1-c1cc(CN(CC)CC)no1` [Compound I-20, 3′-((Diethylamino)methyl)-5-(2,4-dihydroxy-5-isopropylphenyl)-N-ethyl-4,5′-biisoxazole-3-carboxamide], for which the IC50 (at yeast HSP90; in assay [1]) was less than 500 nM in each case.

For the compound `CCNC(=O)c1noc(-c2cc(C(C)C)c(O)cc2O)c1-c1cc(C(N)=O)no1` [Compound I-21, 5-(2,4-Dihydroxy-5-isopropylphenyl)-N^3-ethyl-4,5′-biisoxazole-3,3′-dicarboxamide], the IC50 at yeast HSP90 is 500 to 1000 nM; in assay [1], less than 500 nM.

Turning to `CCNC(=O)c1noc(-c2cc(C(C)C)c(O)cc2O)c1-c1cc(CNCCO)no1` [Compound I-22, 5-(2,4-Dihydroxy-5-isopropylphenyl)-N-ethyl-3′-((2-hydroxyethylamino)methyl)-4,5′-biisoxazole-3-carboxamide], the IC50 against yeast HSP90 is 500 to 1000 nM; in assay [1] it was less than 500 nM.

Take `CCNC(=O)c1noc(-c2cc(C(C)C)c(O)cc2O)c1-c1cc(C(=O)N2CCOCC2)no1` [Compound I-23, 5-(2,4-Dihydroxy-5-isopropylphenyl)-N-ethyl-3′-(morpholine-4-carbonyl)-4,5′-biisoxazole-3-carboxamide]: the IC50 against yeast HSP90 was 500 to 1000 nM; in assay [1], less than 500 nM.

Consider `CCNC(=O)c1noc(-c2cc(Cl)c(O)cc2O)c1-c1cc(CO)no1` [Compound I-24, 5-(5-Chloro-2,4-dihydroxyphenyl)-N-ethyl-3′-(hydroxymethyl)-4,5′-biisoxazole-3-carboxamide], for which the IC50 on yeast HSP90 was 500 to 1000 nM; in assay [1], greater than 1000 nM.

Consider `CCNC(=O)c1noc(-c2cc(Cl)c(O)cc2O)c1-c1cc(C(=O)OCC)no1` [Compound I-25, Ethyl 5-(5-chloro-2,4-dihydroxyphenyl)-3-(ethylcarbamoyl)-4,5′-biisoxazole-3′-carboxylate], for which the IC50 at yeast HSP90 is 500 to 1000 nM; in assay [1], greater than 1000 nM.

With `CCNC(=O)c1noc(-c2cc(C(C)C)c(O)cc2O)c1-c1cc(C(=O)O)no1` [Compound I-26, 5-(2,4-Dihydroxy-5-isopropylphenyl)-3-(ethylcarbamoyl)-4,5′-biisoxazole-3′-carboxylic acid], the IC50 (at yeast HSP90; in assay [1]) was greater than 1000 nM in each case.

Consider `CCNCc1cc(-c2c(C(=O)NCC)noc2-c2cc(C(C)C)c(O)cc2O)on1` [Compound I-27, 5-(2,4-Dihydroxy-5-isopropylphenyl)-N-ethyl-3′-((ethylamino)methyl)-4,5′-biisoxazole-3-carboxamide], for which the IC50 (against yeast HSP90; in assay [1]) was less than 500 nM throughout.

`CCNC(=O)c1noc(-c2cc(C(C)C)c(O)cc2O)c1-c1cc(CF)no1` [Compound I-28, 5-(2,4-Dihydroxy-5-isopropylphenyl)-N-ethyl-3′-(fluoromethyl)-4,5′-biisoxazole-3-carboxamide]: the half-maximal inhibitory concentration (IC50) (at yeast HSP90; in assay [1]) was less than 500 nM throughout.

With `CCNC(=O)c1cc(-c2c(C(=O)NCC)n[nH]c2-c2cc(C(C)C)c(O)cc2O)on1` [Compound I-29, 5-(5-(2,4-Dihydroxy-5-isopropylphenyl)-3-(ethylcarbamoyl)-1H-pyrazol-4-yl)-N-ethylisoxazole-3-carboxamide], the IC50 (on yeast HSP90; in assay [1]) was greater than 1000 nM each time.

On to `CCNC(=O)c1noc(-c2cc(C(C)C)c(O)cc2O)c1-c1cc(CN)no1` [Compound I-30, 3′-(Aminomethyl)-5-(2,4-dihydroxy-5-isopropylphenyl)-N-ethyl-4,5′-biisoxazole-3-carboxamide], for which the IC50 against yeast HSP90 was 500 to 1000 nM; in assay [1], less than 500 nM.

On to `CCNC(=O)c1noc(-c2cc(C(C)C)c(O)cc2O)c1-c1cc(CNC(C)=O)no1` [Compound I-31, 3′-(Acetamidomethyl)-5-(2,4-dihydroxy-5-isopropylphenyl)-N-ethyl-4,5′-biisoxazole-3-carboxamide], for which the 50% inhibitory concentration (IC50) on yeast HSP90 is 500 to 1000 nM; in assay [1], less than 500 nM.
